In US4968698A, “Nitrogen containing heterocyclic compounds” (Burroughs Wellcome Co., priority 1984, dated 1990) one finds IC50 data, which are given here for 29 molecules.

The subject of this assay is Trichomonas vaginalis. Description: In vitro activity against T. vaginalis (IC50 determination). Format: cell-based. To be noted: 37° C., aerobic, Modified Diamonds Medium. As to the method:
The antiprotozoal e.g. antitrichomonal, activity of the compounds of the present invention may be assessed by conventional methods, for example by determining the minimum inhibition concentration (m.i.c.) or 50% inhibition level (IC50).
Modified Diamonds Medium (MDM) was prepared according to the method described in J. Kulda et al., American Journal of Obstetrics and Gynaecology 1970, 108, 908-18 and 4 cm^3 of the medium was pipetted into each of a series of tubes (usually 16 tubes). To each tube was added 0.5 cm^3 of varying concentration of a solution (usually in ethanol+MDM) or suspension of the test drug. Duplicate tubes for each drug concentration were prepared.
Finally, to each tube was added T. vaginalis (0.5 cm^3) at a concentration of 1×10^5 cm^-3,) to give a final trichomonad concentration of 1×10^4 cm^-3 in each tube. The tubes were then incubated (aerobically) at 37° C. and the resulting trichomonad numbers were counted at 24 and 48 hours using a haemacytometer.
This information was then used to determine the 50% inhibition concentration (IC50).

Where [1] appears, read: 24 hr, 1×10^4 trichomonads cm^-3, read-out: IC50 24 hr.
The mark [2] stands for this setting: 48 hr, 1×10^4 trichomonads cm^-3, read-out: IC50 48 hr.

One may read the IC50 as the concentration at which inhibition is half-maximal.

SMILES strings stand for the structures. ≈ marks a conversion by molar mass, not a printed value. Where two headings read alike, the source gives them in different places.

On to `CCCCOc1ccc2c(c1)CCN=C2C=Cc1ccccc1Cl` [Example 12, 6-Butyloxy-1-(2-chlorostyryl)-3,4-dihydroisoquinoline], for which the IC50 came to 1.2 µg/mL (≈ 3.53 µM) under setting [1] and 2 µg/mL (≈ 5.88 µM) under setting [2].

Turning to `CCCCOc1ccc2c(c1)CCN=C2C=Cc1ccc(OC)cc1OC` [Example 14, 6-Butyloxy-3,4-dihydro-1-(2,4-dimethoxystyryl)isoquinoline], the 50% inhibitory concentration (IC50) reads like this: under setting [1], 5.5 µg/mL (≈ 15 µM); under setting [2], 8 µg/mL (≈ 21.9 µM).

For `CCCCOc1ccc2c(c1)CCN=C2C=Cc1ccc(C(C)(C)C)cc1` [Example 15, 6-Butyloxy-1-(4-t-butylstyryl)-3,4-dihydroisoquinoline], the IC50 worked out at 1.5 µg/mL (≈ 4.15 µM) under setting [1] and 2.8 µg/mL (≈ 7.74 µM) under setting [2].

Consider `CCCCOc1ccc2c(c1)CCN=C2C=Cc1ccc([N+](=O)[O-])cc1` [Example 19, 6-Butyloxy-3,4-dihydro-1-(4-nitrostyryl)isoquinoline], for which the IC50 is, setting by setting: under setting [1], 10 µg/mL (≈ 28.5 µM); under setting [2], 13.5 µg/mL (≈ 38.5 µM).

Regarding `CCCCOc1ccc2c(c1)CCN=C2C=Cc1ccc(-c2ccccc2)cc1` [Example 24, 6-Butyloxy-3,4-dihydro-1-(4-phenylstyryl)isoquinoline], the IC50 under setting [1] came to 1.2 µg/mL (≈ 3.15 µM) and the IC50 under setting [2] is 128 µg/mL (≈ 336 µM).

As to `CC(C)(C)CCOc1ccc2c(c1)CCN=C2C=Cc1ccc(Cl)cc1Cl` [Example 33, 1-(2,4-Dichlorostyryl)-3,4-dihydro-6-(3,3-dimethylbutyloxy)isoquinoline], the IC50 under setting [1] was 0.7 µg/mL (≈ 1.74 µM) and the IC50 under setting [2] stood at 1 µg/mL (≈ 2.49 µM).

Take `C=CCCOc1ccc2c(c1)CCN=C2C=Cc1ccc(Cl)cc1Cl` [Example 46, 6-(But-3-enyloxy)-1-(2,4-dichlorostyryl)-3,4-dihydroisoquinoline]: the IC50 under setting [1] stood at 1.1 µg/mL (≈ 2.95 µM) and the IC50 under setting [2] turned out to be 1.3 µg/mL (≈ 3.49 µM).

Turning to `CC(C)COc1ccc2c(c1)CCN=C2C=Cc1ccccc1Cl` [Example 47, 1-(2-Chlorostyryl)-3,4-dihydro-6-(2-methylpropyloxy)-isoquinoline], the IC50 under setting [1] turned out to be 1.1 µg/mL (≈ 3.24 µM) and the IC50 under setting [2] is 1.7 µg/mL (≈ 5 µM).

For `C(=Cc1ccccc1)C1=NCCc2cc(OCc3ccccc3)ccc21` [Example 53, 6-Benzyloxy-3,4-dihydro-1-styrylisoquinoline], the IC50 under setting [1] turned out to be 3.2 µg/mL (≈ 9.43 µM) and the IC50 under setting [2] stood at 5.5 µg/mL (≈ 16.2 µM).

As to `COc1ccc(C=CC2=NCCc3cc(OCc4ccccc4)ccc32)c(OC)c1` [Example 56, 6-Benzyloxy-3,4-dihydro-1-(2,4-dimethoxystyryl)isoquinoline], the IC50 reads like this: under setting [1], 8 µg/mL (≈ 20 µM); under setting [2], 8 µg/mL (≈ 20 µM).

On to `CC(C)(C)c1ccc(C=CC2=NCCc3cc(OCc4ccccc4)ccc32)cc1` [Example 60, 6-Benzyloxy-1-(4-t-butylstyryl)-3,4-dihydroisoquinoline], for which the IC50 is, setting by setting: under setting [1], 5.6 µg/mL (≈ 14.2 µM); under setting [2], 10.5 µg/mL (≈ 26.5 µM).

Regarding `Clc1ccc(C=CC2=NCCc3cc(Oc4ccccc4)ccc32)cc1` [Example 65, 1-(4-Chlorostyryl)-3,4-dihydro-6-phenoxy-isoquinoline], the IC50 under setting [1] stood at 1.2 µg/mL (≈ 3.33 µM) and the IC50 under setting [2] came to 1.6 µg/mL (≈ 4.45 µM).

On to `O=[N+]([O-])c1ccc(C=CC2=NCCc3cc(Oc4ccc(Cl)cc4)ccc32)cc1` [Example 68, 6-(4-Chlorophenoxy)-3,4-dihydro-1-(4-nitrostyryl)-isoquinoline], for which the IC50 by setting is: under setting [1], 5 µg/mL (≈ 12.4 µM); under setting [2], 5.3 µg/mL (≈ 13.1 µM).

`CC(C)(C)c1ccc(Oc2ccc3c(c2)CCN=C3C=Cc2ccc(Cl)cc2Cl)cc1` [Example 71, 6-(4-t-Butylphenoxy)-1-(2,4-dichlorostyryl)-3,4-dihydroisoquinoline]: the half-maximal inhibitory concentration (IC50) came to 0.8 µg/mL (≈ 1.78 µM) under setting [1] and 1.4 µg/mL (≈ 3.11 µM) under setting [2].

In the case of `CC(C)(C)c1ccc(Oc2ccc3c(c2)CCN=C3C=Cc2ccccc2)cc1` [Example 73, 6-(4-t-Butylphenoxy)-3,4-dihydro-1-styrylisoquinoline], the IC50 under setting [1] stood at 0.4 µg/mL (≈ 1.05 µM) and the IC50 under setting [2] was 1.1 µg/mL (≈ 2.88 µM).

In the case of `CCCCCCOc1ccc2c(c1)CCN=C2C=Cc1ccccc1` [Example 74, 6-Hexyloxy-3,4-dihydro-1-styrylisoquinoline], the IC50 runs as follows: under setting [1], 3.3 µg/mL (≈ 9.9 µM); under setting [2], 0.9 µg/mL (≈ 2.7 µM).

In the case of `CCCCCCOc1ccc2c(c1)CCN=C2C=Cc1ccc(C#N)cc1` [Example 75, 1-(4-Cyanostyryl)-6-hexyloxy-3,4-dihydroisoquinoline], the IC50 is, setting by setting: under setting [1], 0.3 µg/mL (≈ 0.837 µM); under setting [2], 0.8 µg/mL (≈ 2.23 µM).

`CC(C)(C)c1ccc(COc2ccc3c(c2)CCN=C3C=Cc2ccccc2)cc1` [Example 80, 6-(4-t-Butylbenzyloxy)-3,4-dihydro-1-styrylisoquinoline]: the IC50 is 2.5 µg/mL (≈ 6.32 µM) under setting [1] and 2.4 µg/mL (≈ 6.07 µM) under setting [2].

Regarding `CC(C)(C)c1ccc(COc2ccc3c(c2)CCN=C3C=Cc2ccc(Cl)cc2Cl)cc1` [Example 81, 6-(4-t-Butylbenzyloxy)-1-(2,4-dichlorostyryl)-3,4-dihydroisoquinoline], the IC50 was 1.1 µg/mL (≈ 2.37 µM) under setting [1] and 1.6 µg/mL (≈ 3.45 µM) under setting [2].

Regarding `C(=Cc1ccc(-c2ccccc2)cc1)C1=NCCc2cc(OCc3ccccc3)ccc21` [Example 82], the IC50 was 0.6 µg/mL (≈ 1.44 µM) under setting [1] and 2 µg/mL (≈ 4.81 µM) under setting [2].

`Clc1ccc(COc2ccc3c(c2)CCN=C3C=Cc2ccc(Cl)cc2Cl)cc1` [Example 85, 6-(4-Chlorobenzyloxy)-1-(2,4-dichlorostyryl)-3,4-dihydroisoquinoline]: the IC50 is 1.1 µg/mL (≈ 2.48 µM) under setting [1] and 1.5 µg/mL (≈ 3.39 µM) under setting [2].

Turning to `Clc1ccc(C=CC2=NCCc3cc(OCc4ccc(Cl)cc4Cl)ccc32)c(Cl)c1` [Example 92, 6-(2,4-Dichlorobenzyloxy)-1-(2,4-dichlorostyryl)-3,4-dihydroisoquinoline], the IC50 under setting [1] worked out at 0.5 µg/mL (≈ 1.05 µM) and the IC50 under setting [2] was 1 µg/mL (≈ 2.1 µM).

In the case of `C(=C\c1cccs1)/C1=NCCc2cc(OCc3ccccc3)ccc21` [Example 104, (E)-6-Benzyloxy-3,4-dihydro-1-[2-(2-thienyl)vinyl]isoquinoline], the IC50 reads like this: under setting [1], 7.4 µg/mL (≈ 21.4 µM); under setting [2], 7.3 µg/mL (≈ 21.1 µM).

On to `CCCCOc1ccc2c(c1)CCN=C2/C=C/c1cccs1` [Example 105, (E)-6-Butyloxy-3,4-dihydro-1-[2-(2-thienyl)vinyl]isoquinoline], for which the IC50 came to 2 µg/mL (≈ 6.42 µM) under setting [1] and 6.7 µg/mL (≈ 21.5 µM) under setting [2].

In the case of `C(=C\c1ccsc1)/C1=NCCc2cc(OCc3ccccc3)ccc21` [Example 106, (E)-6-Benzyloxy-3,4-dihydro-1-(3-thienyl)vinyl isoquinoline], the IC50 came out at 1.4 µg/mL (≈ 4.05 µM) under setting [1] and 3.7 µg/mL (≈ 10.7 µM) under setting [2].

On to `Brc1csc(/C=C/C2=NCCc3cc(OCc4ccccc4)ccc32)c1` [Example 108, (E)-6-Benzyloxy-3,4-dihydro-1-[2-(4-bromo-2-thienyl)vinyl]isoquinoline], for which the IC50 under setting [1] is 2.7 µg/mL (≈ 6.36 µM) and the IC50 under setting [2] is 6.1 µg/mL (≈ 14.4 µM).

`CCCOc1ccc2c(c1)CCN=C2/C=C/c1ccc([N+](=O)[O-])o1` [Example 113, (E)-3,4-Dihydro-6-propyloxy-1-[2-(5-nitro-2-furyl)]vinyl isoquinoline]: the half-inhibitory concentration (IC50) reads like this: under setting [1], 0.7 µg/mL (≈ 2.14 µM); under setting [2], 1.2 µg/mL (≈ 3.68 µM).

As to `O=[N+]([O-])c1ccc(/C=C/C2=NCCc3cc(OCc4ccccc4)ccc32)o1` [Example 115, (E)-6-Benzyloxy-3,4-dihydro-1-[2-(5-nitro-2-furyl)]vinyl isoquinoline], the IC50 is 0.4 µg/mL (≈ 1.07 µM) under setting [1] and 1 µg/mL (≈ 2.67 µM) under setting [2].

Regarding `C(/C=C/c1ccccc1)=C\C1=NCCc2cc(OCc3ccccc3)ccc21` [Example 126, (E,E)-6-Benzyloxy-3,4-dihydro-1-(4-phenylbuta-1,3-dienyl)isoquinoline], the IC50 reads like this: under setting [1], 1.5 µg/mL (≈ 4.1 µM); under setting [2], 1.7 µg/mL (≈ 4.65 µM).
